Key:
[1] = tested on: abdominal sebaceous gland pad organs; assay: Inhibition of testosterone-stimulated abdominal sebaceous gland pad weight increase in castrated male gerbils (Table III); assay type: in vivo
Experimental: The effect of the (E) form of the compound of formula I on sebaceous glands in mammals was further determined using gerbils, according to the following procedure. Male gerbils were castrated at 8 weeks of age and one week after surgery were treated with 5 ug free testosterone and 1,2,3,4-tetrahydro-1,1,4,4-tetramethyl-6-[(E)-α-methylstyryl]naphthalene topically in acetone on the abdominal sebaceous gland pad organs. Animals were treated for 14 days and the response was measured by weight changes in these organs removed at autopsy. Separate groups of gerbils served as vehicle controls and testosterone alone groups. Activity was measured by inhibition of the increase in weight which occurs in response to stimulation with testosterone.

sebum secretion = assay: Inhibition of testosterone propionate-stimulated sebum secretion in castrated male rats (Table I); assay type: in vivo; details: for Mean ± S.E. "Sebum" / % Inhibition of testosterone-stimulated increase in "sebum": 14 days
Experimental: The effect of the (E) form of the compound of formula I on sebum secretion in mammals, such as rats, was determined according to the following procedure. Male rats weighing about 50-60 g. were castrated at the age of 21-22 days. One week after surgery, the rats were washed in a detergent solution to remove "sebum" which was secreted prior to the test period. One group of rats were treated only with the carrier vehicles employed. Another group of rats received only testosterone propionate in sesame oil, 100 ug/0.2 ml/rat/day […]. Other groups of rats were given testosterone propionate in sesame oil (100 ug/0.2 ml/rat/day subcutaneously) and 1,2,3,4-tetrahydro-1,1,4,4-tetramethyl-6-[(E)-α-methylstyryl]naphthalene, with different amounts of 1,2,3,4-tetrahydro-1,1,4,4-tetramethyl-6[(E)-α-methylstyryl]naphthalene being administered to each of the other groups orally in 0.2 ml/rat/day propylene glycol. The rats were treated with the compounds for 14 days. On the 15th day total body immersion in a fixed volume of acetone with mixing for two minutes removed surface "sebum" from skin and fur. An aliquot of the solvent bath was dried and the solid residue was measured gravimetrically. Inhibition of the testosterone-stimulated increase in "sebum" over solely testosterone propionate stimulated rats was used as the parameter of response.

[2] = tested on: sebaceous glands (flank organs); assay: Inhibition of testosterone propionate-stimulated flank organ weight increase in castrated male hamsters (Table II); assay type: in vivo
Experimental: The effect of the (E) form of the compound of formula I on sebaceous glands in mammals was further determined using hamsters, according to the following procedure. […] Animals were treated for 14 days and the response was measured by weight changes in flank organs removed at autopsy. Separate groups of hamsters served as vehicle controls and testosterone alone groups. Activity was measured by inhibition of the increase in weight which occurs in response to stimulation with testosterone propionate.

Hypervitaminosis A test = assay: Hypervitaminosis A test; parameters: species or system mice; details: mouse, in vivo
Experimental: A hypervitaminosis A test was carried out on mice weighing 25-27 g. which received i.p. injections of 1,2,3,4-tetrahydro-1,1,4,4-tetramethyl-6-[(E)-α-methylstyryl]naphthalene in arachis oil over a 14 day period. Hypervitaminosis A is defined as being that condition of the animals where the symptoms (weight loss, skin desquamtion, loss of hair, bone fractures of extremities) added up to at least 3, c.f. W. Bollag, Cancer, 1974, 10, 731.

[3] = Teratogenicity tests, for fetal abnormalities; assay type: in vivo, Charles River CD rats; details: 10, 50 or 150 mg/kg daily orally, gestation days 8 and 9
Experimental: In order to further determine the safety of the (E) form of the compound of formula I teratogenicity tests, for fetal abnormalities, were carried out in rats according to the following procedure. 1,2,3,4-tetrahydro-1,1,4,4-tetramethyl-6-[(E)-α-methylstyryl]naphthalene was provided to Charles River CD rats on gestation days 8 and 9 using a daily dose of 10 , 50 or 150 mg/kg of this substance dissolved or suspended in a polyethelene glycol formulation containing traces of antioxidants (ascorbyl palmitate and butylated hydroxyanisole). The compound was administered orally at a constant volume of 5 ml/kg. The rats were then sacrificed on gestation day 20 and examined.

[4] = Skin irritation, topical application to the ears; assay type: in vivo, Charles River CD-1 mice; details: topically in 25 μl/day acetone, doses up to 100 μg/day, 7 consecutive days
Experimental: 1,2,3,4-tetrahydro-1,1,4,4-tetramethyl-6-[(E)-α-methylstyryl]naphthalene was applied topically to the ears of 21-day-old male Charles River CD-1 mice for 7 consecutive days in 25 μl/day acetone. During treatment mice are observed for development of erythema on the ears, and uniform skin punches are taken at autopsy on day 8. Wet and dry weights of the skin samples were determined and compared to weights from vehicle-treated control animals. Increases in fluid content of the skin punches served as a measure of edema when irritation and inflammation had occurred.

[5] = General tolerability statement; assay type: in vivo; details: pharmacologically suitable dosages
papilloma = details: cited from earlier work

SMILES: C[C@]12CC[C@H]3[C@@H](CCC4=CC(=O)CC[C@@]43C)[C@@H]1CC[C@@H]2O [Testosterone, testosterone, reference compound]
- Mean ± S.E. Sebaceous Gland Pad ([1]; Testosterone alone, 5 ug, 14 days, 10 gerbils): 72.5 ± 5.8 mg

SMILES: C/C(=C\c1ccccc1)c1ccc2c(c1)C(C)(C)CCC2(C)C [1,2,3,4-tetrahydro-1,1,4,4-tetramethyl-6-[(E)-α-methylstyryl]naphthalene]
- Mean ± S.E. "Sebum" (sebum secretion; 0.5 ug/rat/day p.o. + T.P. 100 ug/rat/day s.c., 8 rats, NS vs T.P. alone): 25.1 ± 1.9 ug/100 ul
- Mean ± S.E. "Sebum" (sebum secretion; 1 ug/rat/day p.o. + T.P. 100 ug/rat/day s.c., 8 rats, NS vs T.P. alone): 26.8 ± 1.6 ug/100 ul
- Mean ± S.E. "Sebum" (sebum secretion; 2 ug/rat/day p.o. + T.P. 100 ug/rat/day s.c., 8 rats, NS vs T.P. alone): 22.1 ± 1.2 ug/100 ul
- Mean ± S.E. "Sebum" (sebum secretion; 4 ug/rat/day p.o. + T.P. 100 ug/rat/day s.c., 8 rats, NS vs T.P. alone): 21.6 ± 1.6 ug/100 ul
- % Inhibition of testosterone-stimulated increase in "sebum" (sebum secretion; 10 ug/rat/day p.o. + T.P. 100 ug/rat/day s.c.): 61%
- Mean ± S.E. "Sebum" (sebum secretion; 10 ug/rat/day p.o. + T.P. 100 ug/rat/day s.c., 9 rats, p<.01 vs T.P. alone): 23.4 ± 1.6 ug/100 ul
- % Inhibition of testosterone-stimulated increase in "sebum" (sebum secretion; 20 ug/rat/day p.o. + T.P. 100 ug/rat/day s.c.): 70%
- Mean ± S.E. "Sebum" (sebum secretion; 20 ug/rat/day p.o. + T.P. 100 ug/rat/day s.c., 9 rats, p<.01 vs T.P. alone): 22.4 ± 1.6 ug/100 ul
- % Inhibition of testosterone-stimulated increase in "sebum" (sebum secretion; 40 ug/rat/day p.o. + T.P. 100 ug/rat/day s.c.): 73%
- Mean ± S.E. "Sebum" (sebum secretion; 40 ug/rat/day p.o. + T.P. 100 ug/rat/day s.c., 9 rats, p<.001 vs T.P. alone): 22.1 ± 0.9 ug/100 ul
- % Inhibition of testosterone-stimulated increase in "sebum" (sebum secretion; 100 ug/rat/day p.o. + T.P. 100 ug/rat/day s.c.): 93%
- Mean ± S.E. "Sebum" (sebum secretion; 100 ug/rat/day p.o. + T.P. 100 ug/rat/day s.c., 9 rats, p<.001 vs T.P. alone): 19.9 ± 1.2 ug/100 ul
- sebum secretion (in words) (sebum secretion; 100 ug/rat/day p.o. + T.P. 100 ug/rat/day s.c., compared to T.P. alone): decreased to virtually normal level
- % Inhibition of testosterone-stimulated increase in flank organ weight ([2]; 0.5 μg topically + T.P. 5 ug, 14 days, 9 hamsters): 38%
- Mean ± S.E. Flank Organ ([2]; 0.5 μg topically + T.P. 5 ug, 14 days, 9 hamsters, p<.001 vs T.P. alone): 26.0 ± 1.6 mg
- inhibition of flank organ weight increase ([2]; 0.5 ug/animal/day topically with 5 μg T.P., vs testosterone alone): ~38%
- % Inhibition of testosterone-stimulated increase in sebaceous gland pad weight ([1]; 1 ug topically + testosterone 5 ug, 14 days, 10 gerbils): 54%
- Mean ± S.E. Sebaceous Gland Pad ([1]; 1 ug topically + testosterone 5 ug, 14 days, 10 gerbils, p<.01 vs testosterone alone): 45.6 ± 6.9 mg
- inhibition of sebaceous gland pad weight ([1]; 1.0 ug/animal/day p.o. (so in the source) with 5 ug testosterone topically, vs testosterone alone): ~54%
- undesired side effects such as hypervitaminosis (Hypervitaminosis A test): no undesired side effects such as hypervitaminosis
- NOAEL at 336 h (Hypervitaminosis A test; ip, i.p. in arachis oil, 14 day period, hypervitaminosis A = symptoms adding up to at least 3, read-out: dosage not resulting in hypervitaminosis A (tested up to)): > 400 mg/kg
- external malformations ([3]; 187 fetuses): no external malformations were recorded in any of the 187 fetuses
- absorption rate ([3]; examined day 20): no adverse effects
- fetal weight ([3]; examined day 20): no adverse effects
- maternal body weights ([3]; examined day 20): no adverse effects
- adverse effects (skin irritation: erythema, edema of ear skin punches) [4]: not to have adverse effects
- tolerability [5]: well tolerated without toxic symptoms
- effect on papilloma growth (papilloma; Loeliger et al., Eur. J. Med. Chem., 15, 9 (1980)): no effect on papilloma growth
- papilloma size (papilloma; after intraperitoneal administration, Loeliger et al. (1980)): increase in papilloma size

SMILES: CCC(=O)O[C@H]1CC[C@H]2[C@@H]3CCC4=CC(=O)CC[C@]4(C)[C@H]3CC[C@]12C [T.P., testosterone propionate, reference compound]
- Mean ± S.E. "Sebum" (sebum secretion; 100 ug/rat/day s.c. T.P. alone (0 ug compound), 8 rats, first experiment): 25.1 ± 1.4 ug/100 ul
- Mean ± S.E. "Sebum" (sebum secretion; 100 ug/rat/day s.c. T.P. alone (0 ug compound), 9 rats, second experiment): 30.1 ± 1.0 ug/100 ul
- Mean ± S.E. Flank Organ ([2]; T.P. alone, 5 ug, 14 days, 8 hamsters): 33.8 ± 2.0 mg

Reference: patent publication US4588750A, “Therapeutic compositions for reducing sebum secretion” (Hoffmann-La Roche Inc., priority 1983, dated 1986)
